This assay has as its target T1, aldose reductase (Bos taurus, UniProt P16116).
T1 construct: partially purified aldose reductase is isolated in known manner from bovine lenses; from tissue; host or cells: bovine lenses
As to the kind of experiment: in vitro inhibition of partially purified aldose reductase isolated from bovine lenses (reduction of glucose to sorbitol, spectrophotometric). Format: biochemical. The conditions noted are these: in vitro test, bovine lens aldose reductase. The procedure:
Thus, partially purified aldose reductase is isolated in known manner from bovine lenses. The percentage inhibition of this enzyme's ability in vitro to catalyse the reduction of aldoses to polyhydric alcohols, and particularly to reduce glucose to sorbitol, caused by a test compound is then determined using standard spectrophotometric methods.

In the case of `O=[N+]([O-])CS(=O)(=O)c1cccc2ccccc12` [Example 1, (1-naphthylsulphonyl)nitromethane], the half-maximal inhibitory concentration (IC50) worked out at 320 nM.

As usually defined, the IC50 is the concentration needed to halve the response being measured. A higher IC50 goes with weaker potency.

The values are drawn from patent US5153227A, “Phenylsulfonyl nitromethanes as aldose reductase inhibitors” (Imperial Chemical Industries PLC, priority 1987, dated 1992).
